The source of these data is patent US20110020463A1, “THERAPEUTIC AGENT FOR FIBROMYALGIA SYNDROME AND THERAPEUTIC AGENT FOR PAIN CAUSED BY MUSCLE SPASM” (priority 2008, published 2011).

One test concerns right blepharism. The note with it: human, in vivo.
A further test concerns fibromyalgia syndrome. The note with it: human, in vivo.

Turning to botulinum toxin, the “effect on right blepharism (eyelid)” value with right blepharism is “extremely effective”. Moreover, in the test with fibromyalgia syndrome, the “effect on generalized myalgia” value is on record as “no effect”.
